Source: ChEMBL document CHEMBL1649196, “Comparative in vitro susceptibilities of human mycoplasmas and ureaplasmas to a new investigational ketolide, CEM-101” (2009)
Converted amounts (≈) assume the structure as drawn.

Key:
Type in all cases: functional
[1] = tested on: Mycoplasmoides pneumoniae; assay: Antimicrobial activity against Mycoplasma pneumoniae isolated from human by two fold serial dilution method
[2] = tested on: Mycoplasma genitalium; assay: Antimicrobial activity against Mycoplasma genitalium isolated from human by two fold serial dilution method; settings: Mycoplasmoides genitalium
[3] = tested on: Mycoplasma fermentans; assay: Antimicrobial activity against Mycoplasma fermentans isolated from human by two fold serial dilution method; settings: Mycoplasmopsis fermentans
[4] = tested on: Ureaplasma parvum; assay: Antimicrobial activity against Ureaplasma parvum isolated from human by two fold serial dilution method
[5] = tested on: Ureaplasma urealyticum; assay: Antimicrobial activity against Ureaplasma urealyticum isolated from human by two fold serial dilution method
[6] = tested on: Metamycoplasma hominis; assay: Antimicrobial activity against Mycoplasma hominis isolated from human by two fold serial dilution method

Row | Structure (SMILES) | MIC50 [1] [ng/mL] | MIC90 [1] [ng/mL] | MIC [2] [ng/mL] | MIC50 [3] [ng/mL] | MIC90 [3] [ng/mL] | MIC50 [4] [ng/mL] | MIC90 [4] [ng/mL] | MIC50 [5] [ng/mL] | MIC90 [5] [ng/mL] | MIC [6] [ng/mL] | MIC50 [6] [ng/mL] | MIC90 [6] [ng/mL] | MIC [5] [ng/mL] | MIC [3] [ng/mL]
1 | CC[C@H]1OC(=O)[C@H](C)[C@@H](O[C@H]2C[C@@](C)(OC)[C@@H](O)[C@H](C)O2)[C@H](C)[C@@H](O[C@@H]2O[C@H](C)C[C@H](N(C)C)[C@H]2O)[C@](C)(O)C[C@@H](C)CN(C)[C@H](C)[C@@H](O)[C@]1(C)O [AZITHROMYCIN] | 0.25 (≈ 0.334 nM) | 0.5 (≈ 0.668 nM) | ≤ 0.032 | 500 (≈ 668 nM) | 500 (≈ 668 nM) | 2000 (≈ 2670 nM) | 4000 (≈ 5340 nM) | 2000 (≈ 2670 nM) | 4000 (≈ 5340 nM) | – | – | – | – | –
2 | CCC[C@@H]1C[C@@H](C(=O)N[C@@H]([C@H]2O[C@H](SC)[C@H](O)[C@@H](O)[C@H]2O)[C@H](C)Cl)N(C)C1 [CLINDAMYCIN] | – | – | – | 16 (≈ 37.6 nM) | 31 (≈ 72.9 nM) | – | – | – | – | ≤ 8 | ≤ 8 | 16 (≈ 37.6 nM) | – | –
3 | C[C@H]1c2cccc(O)c2C(=O)C2=C(O)[C@]3(O)C(=O)C(C(N)=O)=C(O)[C@@H](N(C)C)[C@@H]3[C@@H](O)[C@@H]21.O [DOXYCYCLINE] | 125 | 250 | ≤ 8 | 125 | 500 | 8000 | 16000 | 1000 | 16000 | – | 125 | 8000 | – | –
4 | C[C@H]1COc2c(N3CCN(C)CC3)c(F)cc3c(=O)c(C(=O)O)cn1c23.C[C@H]1COc2c(N3CCN(C)CC3)c(F)cc3c(=O)c(C(=O)O)cn1c23.O [LEVOFLOXACIN] | 500 | 500 | 125 | 31 | 125 | 500 | 2000 | 500 | 1000 | – | 250 | 500 | 500 | –
5 | CC(=O)NC[C@H]1CN(c2ccc(N3CCOCC3)c(F)c2)C(=O)O1 [LINEZOLID] | 64000 (≈ 190000 nM) | 128000 (≈ 379000 nM) | 4000 (≈ 11900 nM) | 1000 (≈ 2960 nM) | 4000 (≈ 11900 nM) | > 256000 | > 256000 | – | > 256000 | – | 2000 (≈ 5930 nM) | 4000 (≈ 11900 nM) | ≥ 256000 | –
6 | CC[C@H]1OC(=O)[C@@](C)(F)C(=O)[C@H](C)[C@@H](O[C@@H]2O[C@H](C)C[C@H](N(C)C)[C@H]2O)[C@](C)(OC)C[C@@H](C)C(=O)[C@H](C)[C@H]2N(CCCCn3cc(-c4cccc(N)c4)nn3)C(=O)O[C@]12C [SOLITHROMYCIN] | 0.032 (≈ 0.0379 nM) | 0.125 (≈ 0.148 nM) | ≤ 0.032 | ≤ 8 | ≤ 8 | 8 (≈ 9.47 nM) | 16 (≈ 18.9 nM) | 8 (≈ 9.47 nM) | 31 (≈ 36.7 nM) | – | 4 (≈ 4.73 nM) | 8 (≈ 9.47 nM) | – | ≤ 8
7 | CC[C@H]1OC(=O)[C@H](C)C(=O)[C@H](C)[C@@H](O[C@@H]2O[C@H](C)C[C@H](N(C)C)[C@H]2O)[C@](C)(OC)C[C@@H](C)C(=O)[C@H](C)[C@H]2N(CCCCn3cnc(-c4cccnc4)c3)C(=O)O[C@]12C [TELITHROMYCIN] | 0.25 (≈ 0.308 nM) | 1 (≈ 1.23 nM) | ≤ 0.03 | ≤ 8 | 16 (≈ 19.7 nM) | 63 (≈ 77.6 nM) | 125 (≈ 154 nM) | 63 (≈ 77.6 nM) | 250 (≈ 308 nM) | – | 250 (≈ 308 nM) | 500 (≈ 616 nM) | – | –
